# ChEMBL document CHEMBL4373655, “Aminopyrimidine-galactose hybrids are highly selective galectin-3 inhibitors” (Medchemcomm, 2019)
# Legend:
# [1] = Solubility of the compound in DMSO at >[…] uM; type: physicochemical
# [2] = Solubility of the compound in DMSO up to 900 uM; type: physicochemical
SMILES,solubility [1],solubility [2]
CO[C@@H]1O[C@H](CO)[C@H](O)[C@H](OCc2cc(-c3cccc(F)c3)nc(N)n2)[C@H]1O,Insoluble,Soluble
CO[C@@H]1O[C@H](CO)[C@H](O)[C@H](OCc2cc(-c3cccc(-c4ccccc4)c3)nc(N)n2)[C@H]1O,Insoluble,Soluble
CO[C@@H]1O[C@H](CO)[C@H](O)[C@H](OCc2cc(-c3ccccc3F)nc(N)n2)[C@H]1O,Insoluble,Soluble
CO[C@@H]1O[C@H](CO)[C@H](O)[C@H](OCc2cc(-c3cccc(C)c3)nc(N)n2)[C@H]1O,Insoluble,Soluble
CO[C@@H]1O[C@H](CO)[C@H](O)[C@H](OCc2cc(-c3ccc(C)cc3)nc(N)n2)[C@H]1O,Insoluble,Soluble
CO[C@@H]1O[C@H](CO)[C@H](O)[C@H](OCc2cc(-c3ccc(F)cc3)nc(N)n2)[C@H]1O,Insoluble,Soluble
CO[C@@H]1O[C@H](CO)[C@H](O)[C@H](OCc2cc(-c3ccc(Br)cc3)nc(N)n2)[C@H]1O,Insoluble,Soluble
CO[C@@H]1O[C@H](CO)[C@H](O)[C@H](OCc2cc(-c3ccc(-c4ccccc4)cc3)nc(N)n2)[C@H]1O,Insoluble,Soluble
CO[C@@H]1O[C@H](CO)[C@H](O)[C@H](OCc2cc(-c3ccc4ccccc4c3)nc(N)n2)[C@H]1O,Insoluble,Soluble
CO[C@@H]1O[C@H](CO)[C@H](O)[C@H](OCc2cc(-c3cccc4ccccc34)nc(N)n2)[C@H]1O,Insoluble,Soluble
CO[C@@H]1O[C@H](CO)[C@H](O)[C@H](OCc2cc(-c3ccc(C(C)(C)C)cc3)nc(N)n2)[C@H]1O,Insoluble,Soluble
CO[C@@H]1O[C@H](CO)[C@H](O)[C@H](OCc2cc(-c3ccc(Cl)cc3)nc(N)n2)[C@H]1O,Insoluble,Soluble
CO[C@@H]1O[C@H](CO)[C@H](O)[C@H](OCc2cc(-c3cccc(Cl)c3)nc(N)n2)[C@H]1O,Insoluble,Soluble
CO[C@@H]1O[C@H](CO)[C@H](O)[C@H](OCc2cc(-c3ccccc3)nc(N)n2)[C@H]1O,Insoluble,Soluble
